# Test results published in US10322132B2, “Prevention or treatment of uratic or gouty diseases” (SHANTON PHARMA CO., LTD., priority 2015, dated 2019).
# Tests used:
# [1] = system: serum uric acid; test: Uric acid-lowering test in monkeys having hyperuricemia (UA subcutaneous injection); format: in vivo, cynomolgus monkeys; design: Reduction rate or serum uric acid: concentration or dose not given beside the values; settings: for Content of serum uric acid: Administration group
# Protocol: The experiment was conducted by reference to Komoriya K, Osada Y, Hasegawa M, Horiuchi H, Kondo S, Couch R C, Griffin T B. Hypouricemic effect of allopurinol and the novel xanthine oxidase inhibitor TEI-6720 in chimpanzees. Eur J Pharmacol. 1993 Dec. 21; 250(3): 455-60.
# In the Model group, three non-naïve cynomolgus monkeys (1 #, 2 # and 3 #) were administered with UA by subcutaneous injection at the nape. Blood was collected from the vein before UA administration and 0.5 h, 1 h, 2 h, 4 h, 6 h and 24 h after UA administration. The blood was left still at room temperature. The serum was collected by centrifugation. The content of serum uric acid was measured.
# In the Administration group, three non-naïve cynomolgus monkeys (1 #, 2 # and 3 #) were administered with the test sample by intravenous injection after 2 weeks of clearance. Blood was collected from the vein before administration and 2 h after administration of test sample. Then, the monkeys were administered with UA by subcutaneous injection at the nape and blood was collected from the vein 1 h, 2 h and 4 h after the UA administration. The blood was left still at room temperature. The serum was collected by centrifugation. The content of serum uric acid was measured. Reduction rate of serum uric acid in healthy monkeys administered with test sample=(average uric acid content before administration−average uric acid content 2 h after administration of test sample)/average uric acid content before administration*100%, Reduction rate of serum uric acid in monkeys having hyperuricemia after administration of test sample=(uric acid content after UA administration in the model group−uric acid content after UA administration in the administration group)/uric acid content in the model group*(100%).
# That was, the samples were collected before administration, 2 h after administration of test sample and 1 h, 2 h and 4 h after UA administration for determination of the serum uric acid content. The contents of serum uric acid in the model group and the administration group and the reduction rates of serum uric acid were shown in the following Tables 3-1, 3-2 and 3-3, respectively.
# [2] = system: MSU-induced gouty arthritis; test: MSU-induced gouty arthritis, toe volume; format: in vivo, Male Wistar rats; settings: for Inhibition of toe volume change (%) / Toe volume change: 9 h after MSU; for Inhibition of toe volume change (%): vs model group; for effect on increase of the toe volumes in the test rats (in words): compared with the model group
# Protocol: The experiment was done by reference to Hsin-Pai Lee, Shi-Ying Huang, Yen-You Lin. Soft Coral-Derived Lemnalol Alleviates Monosodium Urate-Induced Gouty Arthritis in Rats by Inhibiting Leukocyte Infiltration and iNOS, COX-2 and c-Fos Protein Expression. […] 2013, 11, 99-113.
# One gram of uric acid was weighed, introduced into 200 mL of boiling water and heated. Then, NaOH (2 mol/L) was added until pH reached 9. The solution became clear, and was cooled at room temperature and then left still overnight. MSU was obtained after filtration, which was dried at 60° C. for 24 h and then sterilized at a high temperature of 180° C.
# The toe volumes of the rats were measured one day prior to the experiment. The rats were administered with the solvent by subcutaneous injection in the model group at a dose of 5 mL/kg, while the rats were administered with test samples by subcutaneous injection in administration groups at a dose of 5 mg/kg. Rats were anesthetized immediately after administration and were injected with 0.09 mL of MSU suspension into the joint cavity of the left ankle. The volume of the left toe was measured in rats 9 h after the injection of MSU into the ankle joint cavity.
# The toe volumes of the rats were measured one day prior to the experiment. The rats were administered with the solvent by subcutaneous injection in the model group at a dose of 15 mL/kg, while the rats were administered with test samples by subcutaneous injection in administration groups at a dose of 15 mg/kg or 10 mg/kg. Rats were anesthetized immediately after administration and were injected with 0.09 mL of MSU suspension into the joint cavity of the left ankle. The volume of the left toe was measured in rats 9 h after the injection of MSU into the ankle joint cavity.
# The toe volumes of rats were measured one day prior to the experiment. The rats were administered with the solvent by subcutaneous injection in the model group at a dose of 15 mL/kg, while the rats were administered with the test sample by subcutaneous injection in administration group at a dose of 15 mg/kg. Rats were anesthetized immediately after administration and were injected with 0.09 mL of MSU suspension into the joint cavity of the left ankle. The volume of the left toe in each rat was measured 9 h after the injection of MSU into the ankle joint cavity.
# [3] = system: TNF-α; test: LPS-induced TNF-α release; format: in vivo, Male BALB/C mice
# Protocol: The experiment was conducted by reference to Pascale Gaillard, Isabelle Jeanclaude-Etter, etc. Design and Synthesis of the First Generation of Novel Potent, Selective, and in Vivo Active (Benzothiazol-2-yl)acetonitrile
# BALB/C mice were raised in the SPF-grade animal room for 1 week, and were then randomly divided into the corresponding model group and the administration groups according to the body weight. The […] were administered with the solvent or the test samples by subcutaneous injection at a dose of 10 mg/kg. The rats were administered with LPS by intraperitoneal injection at a dose of 15 mg/kg 30 min after the administration of the solvent or the test samples. The mice were anesthetized with sodium pentobarbital (45 mg/kg by intraperitoneal injection) 1 h after LPS administration. The blood was collected by cardiac puncture, and the content of TNF-α (tumor necrosis factor) in plasma was measured with a Mouse TNF-α Elisa Ready-set-go kit.
# [4] = Example 5, 15 mg/kg or 10 mg/kg
# [5] = Example 5, 15 mg/kg subcutaneous
structure (smiles),measurement,setting,value
"CCCCCn1c(=O)[nH]c(=O)c2[nH]c(Cl)nc21 [Compound A, 8-chloro-3-pentyl-3,7-dihydro-1H-purine-2,6-dione]",Reduction rate or serum uric acid,"[1]; 1 h after UA administration vs model group, animal 1#",35.5%
same,Reduction rate or serum uric acid,"[1]; 1 h after UA administration vs model group, animal 2#",26.2%
same,Reduction rate or serum uric acid,"[1]; 1 h after UA administration vs model group, animal 3#",56.0%
same,Reduction rate or serum uric acid,"[1]; 1 h after UA administration vs model group, mean",39.2%
same,Reduction rate or serum uric acid,"[1]; 2 h after UA administration vs model group, animal 1#",67.1%
same,Reduction rate or serum uric acid,"[1]; 2 h after UA administration vs model group, animal 2#",37.2%
same,Reduction rate or serum uric acid,"[1]; 2 h after UA administration vs model group, animal 3#",45.5%
same,Reduction rate or serum uric acid,"[1]; 2 h after UA administration vs model group, mean",49.1%
same,Reduction rate or serum uric acid,"[1]; 2 h after administration of test sample vs before administration (healthy monkeys), animal 1#",46.4%
same,Reduction rate or serum uric acid,"[1]; 2 h after administration of test sample vs before administration (healthy monkeys), animal 2#",30.2%
same,Reduction rate or serum uric acid,"[1]; 2 h after administration of test sample vs before administration (healthy monkeys), animal 3#",1.56%
same,Reduction rate or serum uric acid,"[1]; 2 h after administration of test sample vs before administration (healthy monkeys), mean",26.1%
same,Reduction rate or serum uric acid,"[1]; 4 h after UA administration vs model group, animal 1#",64.3%
same,Reduction rate or serum uric acid,"[1]; 4 h after UA administration vs model group, animal 2#",77.1%
same,Reduction rate or serum uric acid,"[1]; 4 h after UA administration vs model group, animal 3#",32.6%
same,Reduction rate or serum uric acid,"[1]; 4 h after UA administration vs model group, mean",58.0%
same,Content of serum uric acid,"[1]; 1 h after UA administration, animal 1#",75.3 µmol/L
same,Content of serum uric acid,"[1]; 1 h after UA administration, animal 2#",97.5 µmol/L
same,Content of serum uric acid,"[1]; 1 h after UA administration, animal 3#",53.1 µmol/L
same,Content of serum uric acid,"[1]; 1 h after UA administration, mean",75.3 µmol/L
same,Content of serum uric acid,"[1]; 2 h after UA administration, animal 1#",26.6 µmol/L
same,Content of serum uric acid,"[1]; 2 h after UA administration, animal 2#",58.0 µmol/L
same,Content of serum uric acid,"[1]; 2 h after UA administration, animal 3#",37.0 µmol/L
same,Content of serum uric acid,"[1]; 2 h after UA administration, mean",40.5 µmol/L
same,Content of serum uric acid,"[1]; 4 h after UA administration, animal 1#",28.4 µmol/L
same,Content of serum uric acid,"[1]; 4 h after UA administration, animal 2#",12.3 µmol/L
same,Content of serum uric acid,"[1]; 4 h after UA administration, animal 3#",43.2 µmol/L
same,Content of serum uric acid,"[1]; 4 h after UA administration, mean",28.0 µmol/L
same,Content of serum uric acid,"[1]; intravenous, 2 h after administration of test sample (before UA), animal 1#",12.3 µmol/L
same,Content of serum uric acid,"[1]; intravenous, 2 h after administration of test sample (before UA), animal 2#",37.0 µmol/L
same,Content of serum uric acid,"[1]; intravenous, 2 h after administration of test sample (before UA), animal 3#",34.6 µmol/L
same,Content of serum uric acid,"[1]; intravenous, 2 h after administration of test sample (before UA), mean",28.0 µmol/L
same,effect on content of serum uric acid in the test monkeys (in words),[1]; compared to the model group (self-comparation),significantly reduce
same,Change of toe volume,"[2]; Example 4, 5 mg/kg subcutaneous, 9 h after MSU injection into left ankle joint cavity",0.416 mL
same,Inhibition of toe volume change (%),"[2]; Example 4, 5 mg/kg subcutaneous",17.5%
same,effect on increase of the toe volumes in the test rats (in words),"[2]; Example 4, 5 mg/kg",significantly inhibit
same,effect on increase of the toe volumes in the test rats (in words),[2]; [4],significantly inhibit
same,Toe volume change,[2]; [5],0.264 mL
same,Inhibition of toe volume change (%),[2]; [5],34.7%
"CCCCCn1c(=O)n(C)c(=O)c2[nH]c(Cl)nc21 [Compound D, 8-chloro-1-methyl-3-pentyl-3,7-dihydro-1H-purine-2,6-dione]",effect on increase of the toe volumes in the test rats (in words),[2]; [4],significantly inhibit
same,Toe volume change,[2]; [5],0.232 mL
same,Inhibition of toe volume change (%),[2]; [5],42.6%
same,inhibition (%),"[3]; TNF-α in plasma vs model group, 10 mg/kg subcutaneous",29.6%
same,effect on content of TNF-α in the plasma of the test mice (in words),[3]; compared with the model group,significantly reduce
same,Content of TNF-α,"[3]; plasma, 10 mg/kg subcutaneous 30 min before LPS 15 mg/kg i.p., 1 h after LPS",1124 pg/mL
